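96-well plates; 48 h exposure; 5 concentrations. Endpoints by linear interpolation between flanking doses. Not reached: highest tested concentration assigned. Here, GI50 denotes the concentration required for 50% inhibition of growth.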 Activity calls are given as the source filed them. No stated cut-off is given here; in the data, active = GI50 up to about 1.1 µM and inactive = higher.
What was measured:
Assay in all cases: NCI tumour cell line growth inhibition, 48 h
[1] = test system: A498
[2] = test system: A549
[3] = test system: COLO 205
[4] = test system: DU-145
[5] = test system: EKVX
[6] = test system: HCT-15
[7] = test system: Hs-578T
[8] = test system: M14
[9] = test system: MCF7
[10] = test system: MOLT-4
[11] = test system: Malme-3M
[12] = test system: NCI-H23
[13] = test system: OVCAR-4
[14] = test system: OVCAR-8
[15] = test system: SF-295
[16] = test system: SK-MEL-2
[17] = test system: SNB-75
[18] = test system: SW-620
[19] = test system: UACC-257

Row | Structure (SMILES) | GI50 [1] | GI50 [2] | GI50 [3] | GI50 [4] | GI50 [5] | GI50 [6] [µM] | GI50 [7] | GI50 [8] | GI50 [9] | GI50 [10] | GI50 [11] | GI50 [12] | GI50 [13] | GI50 [14] | GI50 [15] | GI50 [16] | GI50 [17] | GI50 [18] | GI50 [19]
1 | COC1=CC(=O)c2c(cc(COP(=O)(N(C)CCBr)N(C)CCBr)n2C)C1=O | 1.97 µM (inactive) | 0.185 µM (active) | 0.865 µM (active) | < 0.0235 µM (active) | 2.03 µM (inactive) | 0.491 | 1.77 µM (inactive) | 0.614 µM (active) | < 0.0182 µM (active) | < 0.0173 µM (active) | 0.906 µM (active) | < 0.0212 µM (active) | 5.32 µM (inactive) | 0.241 µM (active) | < 0.0164 µM (active) | 1.89 µM (inactive) | 0.102 µM (active) | 0.187 µM (active) | 2.7 µM (inactive)
2 | O=c1c(-c2ccc(O)cc2)coc2cc(OC3OC(CO)C(O)C(O)C3O)cc(O)c12 (stereo not given) | > 100 µM (inactive) | 60.3 µM (inactive) | > 10 µM (inactive) | > 100 µM (inactive) | 38.8 µM (inactive) | > 100 | 61.1 µM (inactive) | > 10 µM (inactive) | > 10 µM (inactive) | 43.1 µM (inactive) | > 10 µM (inactive) | > 10 µM (inactive) | > 10 µM (inactive) | > 100 µM (inactive) | 92.7 µM (inactive) | > 10 µM (inactive) | 35.7 µM (inactive) | > 10 µM (inactive) | > 100 µM (inactive)
3 | C=C1C(=O)O[C@@H]2[C@H]1C[C@H](I)[C@@]1(C)CC[C@H](O1)[C@](C)(I)CCCC(C)[C@@H]2O (stereo not given in full) | 14.6 µM (inactive) | 9.79 µM (inactive) | 2.21 µM (inactive) | 6.19 µM (inactive) | 8.95 µM (inactive) | 1.76 | 14.6 µM (inactive) | 4.68 µM (inactive) | 2.29 µM (inactive) | 1.49 µM (inactive) | 2.48 µM (inactive) | 7.43 µM (inactive) | 6.32 µM (inactive) | 2.96 µM (inactive) | 16 µM (inactive) | 12.9 µM (inactive) | 2.33 µM (inactive) | 1.81 µM (inactive) | 6.1 µM (inactive)
4 | CC(Oc1ccc(Cl)cc1Cl)C(=O)NN1C(=O)CC(=O)N(c2ccccc2)C1=S (stereo not given) | 26.9 µM (inactive) | 47.6 µM (inactive) | 33.7 µM (inactive) | 53.3 µM (inactive) | 69.5 µM (inactive) | 38.2 | > 100 µM (inactive) | 73.3 µM (inactive) | 35.5 µM (inactive) | 46.3 µM (inactive) | > 100 µM (inactive) | 37.2 µM (inactive) | 45.8 µM (inactive) | 50.2 µM (inactive) | 43.4 µM (inactive) | 42.2 µM (inactive) | 54.1 µM (inactive) | 53.1 µM (inactive) | 74.6 µM (inactive)
5 | O=C(O[C@H]1CCN2C[C@H]3C[C@H](CN4C(=O)CCC[C@H]34)[C@@H]2C1)c1ccc(O)cc1 | > 100 µM (inactive) | > 100 µM (inactive) | > 100 µM (inactive) | > 100 µM (inactive) | > 100 µM (inactive) | > 100 | > 100 µM (inactive) | > 100 µM (inactive) | > 100 µM (inactive) | – | > 100 µM (inactive) | > 100 µM (inactive) | > 100 µM (inactive) | > 100 µM (inactive) | > 100 µM (inactive) | > 100 µM (inactive) | > 100 µM (inactive) | > 100 µM (inactive) | > 100 µM (inactive)
6 | O=C1Oc2ccccc2C1C/C(=N\Nc1ccccc1)c1ccccc1O (stereo not given) | 33.7 µM (inactive) | 50 µM (inactive) | 15 µM (inactive) | 40.7 µM (inactive) | 26.5 µM (inactive) | 34.3 | 74.5 µM (inactive) | 50.8 µM (inactive) | 36.5 µM (inactive) | 29.9 µM (inactive) | 41.3 µM (inactive) | 22.2 µM (inactive) | 32.7 µM (inactive) | 32.4 µM (inactive) | 33.7 µM (inactive) | 35.5 µM (inactive) | 56.8 µM (inactive) | 29.9 µM (inactive) | 28.8 µM (inactive)
7 | CC(=O)C1=C(C)N(c2ccc(C)cc2)C2(O)C3=C(C(=O)c4ccccc4C3=O)C(O)=CC12Cl (stereo not given) | 3.15 µM (inactive) | 17.5 µM (inactive) | 27.5 µM (inactive) | 24.7 µM (inactive) | 54.1 µM (inactive) | 19.8 | 6.28 µM (inactive) | 40.7 µM (inactive) | 12.1 µM (inactive) | 26.7 µM (inactive) | 10.5 µM (inactive) | 12.7 µM (inactive) | 17.1 µM (inactive) | 14.1 µM (inactive) | 5.81 µM (inactive) | 8.53 µM (inactive) | 21.9 µM (inactive) | 9.86 µM (inactive) | 9.38 µM (inactive)
8 | N#CC1=C(N)OC2=C(CCCc3ccc([N+](=O)[O-])cc32)C1c1ccc(Cl)cc1 (stereo not given) | 5.73 µM (inactive) | 6.7 µM (inactive) | 5.35 µM (inactive) | 8.51 µM (inactive) | 4.43 µM (inactive) | 3.12 | 17.1 µM (inactive) | 16.4 µM (inactive) | 4.03 µM (inactive) | 3.21 µM (inactive) | 11.3 µM (inactive) | 5.11 µM (inactive) | 3.3 µM (inactive) | 6.58 µM (inactive) | 11 µM (inactive) | 13.4 µM (inactive) | 11.8 µM (inactive) | 9.35 µM (inactive) | 6.08 µM (inactive)
9 | [N-]=[N+]=Nc1nc2ccccc2c(N=[N+]=[N-])c1Cl | 6.81 µM (inactive) | > 100 µM (inactive) | > 100 µM (inactive) | > 100 µM (inactive) | – | > 100 | 31.6 µM (inactive) | > 100 µM (inactive) | > 100 µM (inactive) | > 100 µM (inactive) | > 100 µM (inactive) | > 100 µM (inactive) | 68.9 µM (inactive) | – | > 100 µM (inactive) | > 100 µM (inactive) | 24.9 µM (inactive) | > 100 µM (inactive) | > 100 µM (inactive)
10 | C#CCOC(=O)C(N)CCCNC(=N)N (stereo not given) | > 100 µM (inactive) | > 100 µM (inactive) | > 100 µM (inactive) | > 100 µM (inactive) | > 100 µM (inactive) | > 100 | > 100 µM (inactive) | > 100 µM (inactive) | > 100 µM (inactive) | > 100 µM (inactive) | > 100 µM (inactive) | > 100 µM (inactive) | > 100 µM (inactive) | > 100 µM (inactive) | – | > 100 µM (inactive) | > 100 µM (inactive) | > 100 µM (inactive) | > 100 µM (inactive)
11 | COc1cc(OCc2ccccc2)c2c(CCC(=O)O)cc(=O)oc2c1.COc1cc(OCc2ccccc2)cc2oc(=O)cc(CCC(=O)O)c12 | 14.7 µM (inactive) | 43.3 µM (inactive) | 67.3 µM (inactive) | 64.6 µM (inactive) | 36.8 µM (inactive) | 27 | 50.6 µM (inactive) | 92.5 µM (inactive) | 2.59 µM (inactive) | 28.1 µM (inactive) | > 100 µM (inactive) | 33.9 µM (inactive) | 47.6 µM (inactive) | 37 µM (inactive) | – | 30.1 µM (inactive) | 60.1 µM (inactive) | > 100 µM (inactive) | > 100 µM (inactive)
12 | CCOC(=O)c1cc2cc(C)cc(C(=O)c3ccc([N+](=O)[O-])cc3)c2[nH]1 | > 100 µM (inactive) | > 100 µM (inactive) | > 100 µM (inactive) | > 100 µM (inactive) | > 100 µM (inactive) | > 100 | 41.2 µM (inactive) | > 100 µM (inactive) | > 100 µM (inactive) | > 100 µM (inactive) | > 100 µM (inactive) | > 100 µM (inactive) | > 100 µM (inactive) | – | > 100 µM (inactive) | > 100 µM (inactive) | 51.6 µM (inactive) | > 100 µM (inactive) | > 100 µM (inactive)
13 | CCOC(=O)NN(C(=O)OCC)c1c(C)cc(C)cc1C | > 100 µM (inactive) | > 100 µM (inactive) | > 100 µM (inactive) | > 100 µM (inactive) | > 100 µM (inactive) | > 100 | > 100 µM (inactive) | > 100 µM (inactive) | > 100 µM (inactive) | > 100 µM (inactive) | > 100 µM (inactive) | > 100 µM (inactive) | > 100 µM (inactive) | > 100 µM (inactive) | – | > 100 µM (inactive) | > 100 µM (inactive) | > 100 µM (inactive) | > 100 µM (inactive)
14 | CCCNC(=O)N1CC(CN2CCN(c3ccccc3)CC2)O/C1=N/C(=O)Nc1ccccc1 (stereo not given) | > 100 µM (inactive) | 63.4 µM (inactive) | 33.3 µM (inactive) | 57.9 µM (inactive) | 71.8 µM (inactive) | – | > 100 µM (inactive) | 65.9 µM (inactive) | > 100 µM (inactive) | > 100 µM (inactive) | 97.1 µM (inactive) | 73.8 µM (inactive) | 90.4 µM (inactive) | – | > 100 µM (inactive) | 45.3 µM (inactive) | 76.2 µM (inactive) | > 100 µM (inactive) | 46.8 µM (inactive)
15 | CCCCCCCCCCCCC(O)[C@H]1CC[C@H](C(O)CCCCCC(=O)CCCCC2CC(C(C)=O)C(=O)O2)O1 (stereo not given in full) | 13.3 µM (inactive) | 3.7 µM (inactive) | 6.3 µM (inactive) | > 43.6 µM (inactive) | 5.69 µM (inactive) | 8.18 | 15.4 µM (inactive) | 8.77 µM (inactive) | 3.47 µM (inactive) | – | 11.5 µM (inactive) | 2.22 µM (inactive) | 4.09 µM (inactive) | 8.97 µM (inactive) | 4.95 µM (inactive) | 13.6 µM (inactive) | 10.5 µM (inactive) | 11.4 µM (inactive) | 1.16 µM (inactive)
